*1 amine or outer side, *2 acyl side, *3 side chain or, on linkers, in order; H or OH if unused. Where a SMILES comes first, the peptide text is derived from it. Bridges are numbered along the chain shown (N, C = ends). Side-chain parts run from the residue outwards. [ ]: non-standard residue; d: D form. The star is where a group is joined. X11 = CN(CC(N)=O)C(=O)[C@H](Cc1cccnc1)NC(O)[C@H](CC(N)=O)N*; Me3N+(CH2)2O(CH2)2O(CH2)2CO = C[N+](C)(C)CCOCCOCCC(=O)*; PEG12 = NCCOCCOCCOCCOCCOCCOCCOCCOCCOCCOCCOCCOCCC(=O)O; NH(CH2CH2O)2CH2CH2NMe3+ = C[N+](C)(C)CCOCCOCCN*; Trp(7-Me) = Cc1cccc2c(C[C@H](N)C(=O)O)c[nH]c12; C18 diacid = O=C(O)CCCCCCCCCCCCCCCCC(=O)*; X20 = CC(=O)CCCCC[C@H](N[*:1])C(=O)[*:2]; γGlu = O=C(O)[C@H](CCC(=O)[*:2])N[*:1]; 2Nal = N[C@@H](Cc1ccc2ccccc2c1)C(=O)O; AEF = NCCOc1ccc(C[C@H](N)C(=O)O)cc1; 3Pal = N[C@@H](Cc1cccnc1)C(=O)O; Lys(Me) = CNCCCC[C@H](N)C(=O)O; Pen = CC(C)(S)[C@H](N)C(=O)O; Thp = NC1(C(=O)O)CCOCC1; AEEA = NCCOCCOCC(=O)O; Sar = CNCC(=O)O
Columns and labels:
[1] = biological target: T1, IL-23R (Homo sapiens, UniProt Q5VWK5); assay: IL23R Reporter Assay; format: cell-based; conditions: HEK293 cells containing IL-23R, IL-12Rβ1 and STAT-inducible firefly luciferase reporter; 10 ng/mL IL-23 (EC90); 5 h
T1 construct: HEK293 cells containing IL-23R, IL-12Rβ1 and a firefly luciferase reporter gene driven by a STAT-inducible promoter (Promega); host or cells: HEK293
T1 sequence (Q5VWK5 24-629): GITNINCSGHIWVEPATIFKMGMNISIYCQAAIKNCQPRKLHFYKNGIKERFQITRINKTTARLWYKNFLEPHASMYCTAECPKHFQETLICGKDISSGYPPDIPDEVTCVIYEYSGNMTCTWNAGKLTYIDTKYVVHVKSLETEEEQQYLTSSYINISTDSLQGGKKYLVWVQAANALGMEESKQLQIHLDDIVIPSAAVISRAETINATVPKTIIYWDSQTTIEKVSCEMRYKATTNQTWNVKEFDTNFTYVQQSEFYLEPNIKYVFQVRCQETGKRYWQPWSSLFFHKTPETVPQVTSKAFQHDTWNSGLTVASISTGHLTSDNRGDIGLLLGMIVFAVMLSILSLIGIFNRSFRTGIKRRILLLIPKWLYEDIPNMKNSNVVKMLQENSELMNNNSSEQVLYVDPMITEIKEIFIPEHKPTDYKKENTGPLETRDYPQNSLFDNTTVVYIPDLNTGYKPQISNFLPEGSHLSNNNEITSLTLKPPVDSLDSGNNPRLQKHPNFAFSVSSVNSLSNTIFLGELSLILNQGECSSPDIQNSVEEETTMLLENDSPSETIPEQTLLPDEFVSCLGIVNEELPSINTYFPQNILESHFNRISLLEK
Procedure, shortened: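 IC50 values were fitted with a 4-parameter Hill equation to luciferase signal, scaled between IL-23-only wells (0% inhibition) and 30 μM reference inhibitor (100%). The readout was a STAT-inducible reporter in IL-23R/IL-12Rβ1 HEK293 cells, stimulated with added 10 ng/mL IL-23 (EC90) for 5 h at 37° C and developed with BioGlo.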

[2] = system: IL-23-stimulated phosphorylated STAT3 in peripheral blood mononuclear cells (PBMCs); assay: PBMC pSTAT3 Assay; format: cell-based; conditions: PBMCs from healthy donors; 30 min preincubation with peptide; IL-23 5 ng/mL for 30 min; phospho-STAT3 by MSD
Procedure, shortened: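 Phospho-STAT3 quantified by Meso Scale assay in lysates of PBMCs exposed to IL-23 (5 ng/mL, 30 min, 37 °C) after 30 min peptide pretreatment. Cells were cryopreserved donor PBMCs activated 4 days with anti-CD3 plus IL-1β (100 ng/mL) and starved ~4 h; IC50 reported.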

IC50 [1]	SMILES	IC50 [2]
50 to 500 nM	C=C(O)[C@H](CCC(=O)NCCOCCOCC(=O)NCCOCCOCC(=O)NCCCC[C@H](NC(=O)CN(C)C(=O)[C@H](Cc1cccnc1)NC(=O)[C@H](CC(N)=O)NC(=O)[C@H](CCCCNC(=O)CCC(=O)N[C@H](CC(=O)O)C[N+](C)(C)C)NC(=O)C1(NC(=O)[C@H](Cc2ccc3ccccc3c2)NC(=O)[C@H](Cc2ccc(OCCN)cc2)NC(=O)[C@H]2NC(=O)[C@H](CCCCNC(C)=O)NC(=O)[C@H](Cc3c[nH]c4c(C)cccc34)NC(=O)[C@H]([C@@H](C)O)NC(=O)[C@H](CC(N)=O)NC(=O)[C@@H](NC(C)=O)C(C)(C)SSC2(C)C)CCOCC1)C(N)=O)NC(=O)CCCCCCCCCCCCCCCCC(=O)O [compound 50, MeCO-Pen(3)-N-T-7MeW-K(Ac)-Pen(3)-AEF-2Nal-THP-K(d)-N-3Pya-Sar-K(PEG2PEG2gEC18OH)-CONH2]	< 0.5 nM
< 50 nM	CC(=O)CCCCC[C@@H]1NC(=O)[C@H](Cc2c[nH]c3c(C)cccc23)NC(=O)[C@H]([C@@H](C)O)NC(=O)[C@H](CC(N)=O)NC(=O)[C@@H](NC(C)=O)C(C)(C)SSC(C)(C)[C@@H](C(=O)N[C@@H](Cc2ccc(OCCN)cc2)C(=O)N[C@@H](CCC(=O)O)C(=O)N[C@@H](CC(N)=O)C(=O)N[C@@H](Cc2cccnc2)C(=O)N(C)CC(=O)N[C@@H](CCCCNC(=O)CCOCCOCCOCCOCCOCCOCCOCCOCCOCCOCCOCCOCCNC(=O)CC[C@H](NC(=O)CCCCCCCCCCCCCCCCC(=O)O)C(=O)O)C(N)=O)NC1=O [compound 161, MeCO-Pen(3)-N-T-7MeW-K(Ac)-Pen(3)-AEF-2Nal-THP-E-N-3Pya-Sar-K(PEG12gEC18OH)-CONH2] (Ac-[Pen]NT[Trp(7-Me)][X20][Pen][AEF]EN[3Pal][Sar]K([PEG12-γGlu-C18 diacid])-NH2; disulfide 1-6)	< 0.5 nM
< 50 nM	CC(=O)NCCCC[C@@H]1NC(=O)[C@H](Cc2c[nH]c3c(C)cccc23)NC(=O)[C@H]([C@@H](C)O)NC(=O)[C@H](CC(N)=O)NC(=O)[C@@H](NC(=O)[C@@H](CCCNC(=N)N)NC(=O)COCCOCCNC(=O)COCCOCCNC(=O)CC[C@H](NC(=O)CCCCCCCCCCCCCCCCC(=O)O)C(=O)O)C(C)(C)SSC(C)(C)[C@@H](C(=O)N[C@@H](Cc2ccc(OCCN)cc2)C(=O)N[C@@H](Cc2ccc3ccccc3c2)C(=O)NC2(C(=O)N[C@@H](CCCCN(C)C(=O)CCOCCOCC[N+](C)(C)C)C(=O)N[C@@H](CC(N)=O)C(O)N[C@@H](Cc3cccnc3)C(=O)N(C)CC(N)=O)CCOCC2)NC1=O (stereo partly drawn) [compound 82, HOC18gEPEG2PEG2CO-r-Pen(3)-N-T-7MeW-K(Ac)-Pen(3)-AEF-2Nal-THP-K(NMecPEG3a)-N-3Pya-Sar-CONH2] ({C18 diacid-γGlu-AEEA-AEEA}-[dR][Pen]NT[Trp(7-Me)]K(Ac)[Pen][AEF][2Nal][Thp][Lys(Me)](Me3N+(CH2)2O(CH2)2O(CH2)2CO)-X11; disulfide 2-7)	< 0.5 nM
50 to 500 nM	CC(=O)NCCCC[C@@H]1NC(=O)[C@H](Cc2c[nH]c3c(C)cccc23)NC(=O)[C@H]([C@@H](C)O)NC(=O)[C@H](CC(N)=O)NC(=O)[C@@H](NC(=O)[C@@H](CCCNC(=N)N)NC(=O)COCCOCCNC(=O)COCCOCCNC(=O)CC[C@H](NC(=O)CCCCCCCCCCCCCCCCC(=O)O)C(=O)O)C(C)(C)SSC(C)(C)[C@@H](C(=O)N[C@@H](Cc2ccc(OCCN)cc2)C(=O)N[C@@H](Cc2ccc3ccccc3c2)C(=O)NC2(C(=O)N[C@@H](CCC(=O)O)C(=O)N[C@@H](CC(N)=O)C(=O)N[C@@H](Cc3cccnc3)C(=O)N(C)CC(=O)NCCOCCOCC[N+](C)(C)C)CCOCC2)NC1=O [compound 67, HOC18gEPEG2PEG2CO-r-Pen(3)-N-T-7MeW-K(Ac)-Pen(3)-AEF-2Nal-THP-E-N-3Pya-Sar-CONH(PEG3a)] ({C18 diacid-γGlu-AEEA-AEEA}-[dR][Pen]NT[Trp(7-Me)]K(Ac)[Pen][AEF][2Nal][Thp]EN[3Pal][Sar]-{NH(CH2CH2O)2CH2CH2NMe3+}; disulfide 2-7)	0.5 to 5 nM
